Experiment: xn = mol fraction of the nth substance listed, in the solute-free solvent

CCC(C(C)O)n1ncn(-c2ccc(N3CCN(c4ccc(OCC5COC(Cn6cncn6)(c6ccc(F)cc6F)C5)cc4)CC3)cc2)c1=O (centres undefined) + CCOC(C)=O + CC(C)O
solubility (g/100 g solution)
Conditions | 273.15 K | 278.15 K | 283.15 K | 288.15 K | 293.15 K | 298.15 K | 303.15 K | 308.15 K | 313.15 K
x2 = 0.07045 | 0.00869 | 0.0113 | 0.015 | 0.0192 | 0.0237 | 0.0294 | 0.0352 | 0.0423 | 0.0504
x2 = 0.1457 | 0.0114 | 0.0145 | 0.0186 | 0.023 | 0.0283 | 0.0344 | 0.0415 | 0.049 | 0.058
x2 = 0.2262 | 0.0148 | 0.0192 | 0.0245 | 0.0306 | 0.0374 | 0.0445 | 0.0524 | 0.0621 | 0.0721
x2 = 0.3126 | 0.0191 | 0.0242 | 0.0305 | 0.0373 | 0.0452 | 0.0542 | 0.0641 | 0.0753 | 0.0897
x2 = 0.4055 | 0.0249 | 0.0308 | 0.039 | 0.0482 | 0.0589 | 0.071 | 0.0837 | 0.0987 | 0.119
x2 = 0.5057 | 0.0321 | 0.0401 | 0.0493 | 0.0608 | 0.0728 | 0.0857 | 0.103 | 0.121 | 0.145
x2 = 0.6141 | 0.0354 | 0.0469 | 0.0581 | 0.0726 | 0.0862 | 0.101 | 0.118 | 0.14 | 0.164
x2 = 0.7318 | 0.0383 | 0.0499 | 0.0636 | 0.0793 | 0.0965 | 0.115 | 0.135 | 0.16 | 0.186
x2 = 0.8599 | 0.0405 | 0.0522 | 0.066 | 0.0819 | 0.101 | 0.12 | 0.142 | 0.166 | 0.193

COC(=O)C1=C(C)NC(C)=C(C(=O)OCC(C)C)C1c1ccccc1[N+](=O)[O-] (centres undefined) + CCOC(C)=O + CC(C)O
solubility (g/100 g solution)
Conditions | 278.15 K | 283.15 K | 288.15 K | 293.15 K | 298.15 K | 303.15 K | 308.15 K | 313.15 K | 318.15 K
x2 = 0.07045 | 3.52 | 4.21 | 5.01 | 5.86 | 6.83 | 7.91 | 9.07 | 10.5 | 11.9
x2 = 0.1457 | 4.03 | 4.67 | 5.54 | 6.46 | 7.55 | 8.74 | 9.96 | 11.4 | 12.9
x2 = 0.2262 | 4.4 | 5.19 | 6.09 | 7.07 | 8.21 | 9.47 | 10.8 | 12.3 | 13.9
x2 = 0.3126 | 4.88 | 5.76 | 6.68 | 7.75 | 8.91 | 10.2 | 11.5 | 13 | 14.7
x2 = 0.4055 | 5.37 | 6.28 | 7.26 | 8.31 | 9.53 | 10.8 | 12.3 | 13.8 | 15.4
x2 = 0.5057 | 5.77 | 6.69 | 7.7 | 8.82 | 10.1 | 11.4 | 12.9 | 14.5 | 16.1
x2 = 0.6141 | 6.12 | 7.09 | 8.13 | 9.25 | 10.6 | 12 | 13.5 | 15.1 | 16.8
x2 = 0.7318 | 6.4 | 7.37 | 8.53 | 9.72 | 11 | 12.5 | 14.1 | 15.7 | 17.5
x2 = 0.8599 | 6.59 | 7.63 | 8.83 | 10 | 11.4 | 12.8 | 14.3 | 16 | 17.8

CCC(C(C)O)n1ncn(-c2ccc(N3CCN(c4ccc(OCC5COC(Cn6cncn6)(c6ccc(F)cc6F)C5)cc4)CC3)cc2)c1=O (centres undefined) + CCOC(C)=O + CCO
solubility (g/100 g solution)
Conditions | 273.15 K | 278.15 K | 283.15 K | 288.15 K | 293.15 K | 298.15 K | 303.15 K | 308.15 K | 313.15 K
x2 = 0.05491 | 0.0447 | 0.057 | 0.0728 | 0.0894 | 0.109 | 0.13 | 0.151 | 0.174 | 0.201
x2 = 0.1156 | 0.0657 | 0.084 | 0.104 | 0.125 | 0.148 | 0.173 | 0.2 | 0.229 | 0.264
x2 = 0.1831 | 0.106 | 0.131 | 0.158 | 0.188 | 0.217 | 0.251 | 0.289 | 0.33 | 0.38
x2 = 0.2585 | 0.144 | 0.174 | 0.207 | 0.243 | 0.28 | 0.323 | 0.37 | 0.422 | 0.484
x2 = 0.3434 | 0.162 | 0.191 | 0.227 | 0.265 | 0.308 | 0.358 | 0.417 | 0.486 | 0.561
x2 = 0.4396 | 0.142 | 0.171 | 0.202 | 0.237 | 0.27 | 0.311 | 0.359 | 0.412 | 0.48
x2 = 0.5496 | 0.112 | 0.137 | 0.163 | 0.192 | 0.221 | 0.253 | 0.285 | 0.321 | 0.36
x2 = 0.6765 | 0.0924 | 0.114 | 0.136 | 0.158 | 0.182 | 0.206 | 0.232 | 0.259 | 0.294
x2 = 0.8247 | 0.0667 | 0.0831 | 0.101 | 0.119 | 0.138 | 0.158 | 0.182 | 0.21 | 0.24

COC(=O)C1=C(C)NC(C)=C(C(=O)OCC(C)C)C1c1ccccc1[N+](=O)[O-] (centres undefined) + CCOC(C)=O + CCO
solubility (g/100 g solution)
Conditions | 278.15 K | 283.15 K | 288.15 K | 293.15 K | 298.15 K | 303.15 K | 308.15 K | 313.15 K | 318.15 K
x2 = 0.05491 | 3.09 | 3.87 | 4.65 | 5.7 | 6.64 | 8.03 | 9.37 | 11.1 | 12.9
x2 = 0.1156 | 3.98 | 4.79 | 5.78 | 6.75 | 8.13 | 9.47 | 11 | 12.8 | 14.5
x2 = 0.1831 | 4.91 | 5.89 | 6.97 | 8.15 | 9.36 | 10.8 | 12.3 | 14 | 15.7
x2 = 0.2585 | 5.53 | 6.46 | 7.49 | 8.75 | 10 | 11.5 | 13 | 14.7 | 16.6
x2 = 0.3434 | 5.99 | 6.94 | 8.09 | 9.33 | 10.6 | 12 | 13.7 | 15.3 | 17.2
x2 = 0.4396 | 6.34 | 7.36 | 8.52 | 9.66 | 11.2 | 12.6 | 14.2 | 15.9 | 17.7
x2 = 0.5496 | 6.6 | 7.63 | 8.77 | 10.1 | 11.4 | 12.8 | 14.4 | 16.1 | 18
x2 = 0.6765 | 6.76 | 7.78 | 8.91 | 10.2 | 11.5 | 13.1 | 14.7 | 16.3 | 18.2
x2 = 0.8247 | 6.8 | 7.86 | 9.01 | 10.2 | 11.6 | 13.1 | 14.6 | 16.3 | 18.2
